{
  "source": "paper PMC5572369",
  "about": "(Frontiers in Microbiology, 2017)",
  "key": {"PrbP [1]": {"molecular_target": "T1, PrbP (Candidatus Liberibacter asiaticus, UniProt A0ABM5NE52)", "T1 construct": "gene WSI_01420"}, "PrbP [2]": {"molecular_target": "T1, PrbP", "remark": "listed apart in the source"}},
  "data": [
    {"smiles": "Cc1c(Cl)cccc1Nc1ccccc1C(=O)O", "note": "[tolfenamic acid]", "values": [
      {"measurement": "concentration for complete disruption of PrbP/PrplK complex", "setting": "PrbP [1]", "result": 350, "unit": "µM"},
      {"measurement": "% decrease in transcription at 500 μM", "setting": "PrbP [2]", "result": 79, "unit": "%"}
    ]}
  ]
}
